In patent US10640544B2, “Antibody-coupled cyclic peptide tyrosine tyrosine compounds as modulators of neuropeptide Y receptors” (JANSSEN PHARMACEUTICA NV, priority 2016, dated 2020):

Experiments:
[1] = Weight loss in diet-induced obese mice: chronic dosing (body weight, fed blood glucose); format: in vivo, mouse; conditions: DIO mice, after 8 days of treatment; 0.3 nmol/kg s.c. every day
Experimental: (§1) Compound 1 was evaluated for its ability to reduce foot intake and body weight and improve glucose homeostasis on repeat dosing in male DIO C57Bl/6 mice over a period of 8 days. Male DIO C57BL/6N mice (20 weeks of age, 14 weeks on high fat diet) were obtained from Taconic Laboratory. […] Animals were acclimated to the facility for at least one week prior to the start of the experiment.
(§2) The day prior to dosing, mice were grouped based on individual body weights. At 3:00-4:[…] for each of the next 8 days, animals and food intake were weighed. […] After 8 days, mice are fasted for 5 hours and then given a 2 g/kg bolus of glucose orally at t=0. At t=0, 30, 60, 90, and 120 minutes post glucose challenge blood glucose is measured and at t=0, 30, and 90 minutes blood in drawn to measure plasma insulin. […] All data are presented as the mean±SEM (FIG. 7, FIG. 8, and Tables 8-11).

[2] = Single dose effect on food intake and body weight in Sprague-Dawley rats; format: in vivo, rat; set-up: body weight change: unit not given here; conditions: single dose 0.3 nmol/kg s.c.
Experimental: Compound 1 was evaluated for its ability to reduce foot intake and body weight in Sprague-Dawley after a single dose. The animals were obtained from Charles River Labs (Wilmington, Mass.) at 200-225 g body weight and used within one week of delivery. They were housed one per cage on alpha dry bedding and a plastic tube for enrichment in a temperature-controlled room with 12-hour light/dark cycle. […] Animal weights were taken and recorded for each rat prior to dosing.
Body weights and food intake were measured 1, 2 and 3 days after dosing and the percentages of weight loss and reduction in food intake were calculated. […] All data are presented as the mean±SEM (Tables 18-20).

[3] = OGTT in DIO mice after 8 days of treatment (blood glucose, insulin); format: in vivo, mouse; conditions: 8 days treatment, 0.3 nmol/kg s.c. every day
Experimental: as §1, §2

Dulaglutide: long-acting GLP-1 receptor agonist, comparator
fed Blood Glucose [1]: 114 ± 13 mg/dL
Total Food Consumption over three days [2]: 87.4 ± 2.0
body weight change ([2]; Day 0): 0.0 ± 0.0
daily food intake ([2]; Day 0): 26.6 ± 0.8
absolute body weight ([2]; Day 0, in g (unit assumed)): 270.3 ± 3.0
body weight change ([2]; Day 1): 10.6 ± 1.6
daily food intake ([2]; Day 1): 27.3 ± 1.2
absolute body weight ([2]; Day 1, in g (unit assumed)): 280.8 ± 4.2
body weight change ([2]; Day 2): 22.5 ± 0.8
daily food intake ([2]; Day 2): 30.0 ± 0.7
absolute body weight ([2]; Day 2, in g (unit assumed)): 292.47 ± 3.6
body weight change ([2]; Day 3): 28.7 ± 0.6
daily food intake ([2]; Day 3): 30.1 ± 0.7
absolute body weight ([2]; Day 3, in g (unit assumed)): 299.0 ± 3.3
body weight change ([2]; Day −1 (relative to Day 0)): −6.3 ± 0.8
absolute body weight ([2]; Day −1, in g (unit assumed)): 264.0 ± 3.1
blood glucose Delta AUC (OGTT) [3]: 6668 ± 1846 mg/dl/120 min
blood glucose Total AUC (OGTT) [3]: 15758 ± 1054 mg/dl/120 min
blood glucose during OGTT ([3]; 0 min after glucose challenge): 76 ± 9 mg/dL
insulin during OGTT ([3]; 0 min after glucose challenge): 0.6 ± 0.1 ng/mL
blood glucose during OGTT ([3]; 30 min after glucose challenge): 151 ± 14 mg/dL
insulin during OGTT ([3]; 30 min after glucose challenge): 1.7 ± 0.2 ng/mL
blood glucose during OGTT ([3]; 60 min after glucose challenge): 174 ± 17 mg/dL
blood glucose during OGTT ([3]; 90 min after glucose challenge): 104 ± 10 mg/dL
insulin during OGTT ([3]; 90 min after glucose challenge): 0.7 ± 0.2 ng/mL
blood glucose during OGTT ([3]; 120 min after glucose challenge): 119 ± 9 mg/dL
